Earlier results as cited in patent US20100047273A1, “Coxsackie B virus and type 1 diabetes” (priority 2007, published 2010).

Tested on: coxsackie B4 virus
Conditions: reported in references 4 and 5

In the case of `Cc1cc(CCCOc2c(C)cc(-c3noc(C(F)(F)F)n3)cc2C)on1` [pleconaril], the “activity against coxsackie B4 virus” value is listed as “active”.
